The record followed here is patent US8343985B2, “Methods for modulating Lyn kinase activity and treating related disorders” (Melior Pharmaceuticals I, Inc., priority 2005, dated 2013).

For one series, the system named is Zucker rats. In words: In vivo Zucker rat glucose study. The following applies: 30 mg/kg ip, glucose 1.5 g/kg, 30 and 270 minutes. How it is done: Zucker rats and corresponding lean rats were supplied by Harlan. Rats were fed a normal diet, ad libitum, and kept on a 12 hr light/dark cycle. Rats were housed 3 per cage. At 12 weeks of age, Zucker rats were administered Compound 102 at a concentration of 30 mg/kg (ip). Blood glucose levels were measured 30 minutes after administration. Forty-five minutes after drug administration, animals were administered a glucose solution (1.5 g/kg) by oral gavage. Blood glucose levels were measured every 30 minutes after gavage for 4.5 hrs. There were 3 groups with 3 animals per group: 1) 3 Zucker leans (no drug; no glucose treatment); 2) Zucker vehicle treated group (glucose challenged and 3) Zucker Compound 102 treatment (30 mg/kg); glucose challenged.

The next series relates to leptin. Kind of series: Leptin levels in Western diet treated animals (ELISA). The format is in vivo. The following applies: Western diet mice. How it is done: Blood from mice that were on western diet (Compound 102) were analyzed for leptin levels. Mice were bled by retroorbital eyebleed on days 7, 14, 21 and 28 after the initiation of the study. On day of REB mice were dosed once with full dose 1 hr prior to bleed. Leptin levels were determined by ELISA (R&D Systems) as per directions. Data are expressed as the average ±SEM. Data were averaged and analyzed by ANOVA followed by a post-hoc Tukey's test with a p value of less then 0.05 indicating a statistical difference.
Background: An ELISA detects its analyte on a solid surface through an enzyme-linked reagent.

Series [1] has as its system mouse model of hyperglycemia. Kind of series: Oral glucose tolerance test in mice (mouse model of hyperglycemia). The format is in vivo. Conditions: for blood glucose levels / blood glucose load in mouse model of type II diabetes: mice administered high levels of glucose. The text has this:
Type II diabetes is characterized by high blood glucose levels in the presence of normal amounts of insulin. Animal models of type II diabetes involve administering high levels of glucose and measuring blood glucose levels and the ability of the experimental animal to maintain glucose homeostasis over time. Several pharmacological structural classes can effectively regulate this hyperglycemic response including sulfonylureas, thiazoladinediones (PPARγ agonists; glitazones) or metformin (glucophage). These drug classes are also clinically approved for use in humans. In the current study, we established a mouse model of hyperglycemia by administering high levels of glucose to mice.
Glucose was formulated in water at a concentration of 150 mg/ml and dosed at a volume of 10 ml/kg to produce a dose of 1.5 g/kg. Glucose was measured using the Ascensia II Elite XL glucose monitor (Bayer). Measure glucose by taking a small (2 mm) section off the tip of the tail, bleed onto glucose test strip and measure. Data for each time point analyzed by ANOVA and post-hoc Tukey's test. A p value of less then 0.05 was used to indicate statistical significance.
In study 1, mice were dosed with Compound 102 and glucose as follows:
In study 2, mice were dosed with Compound 102 and glucose as follows.
Study 3 tested Compound 102 and was conducted as follows: […]

Series [2] relates to Male CD1/ICR mice fed Western Diet. Kind of series: Western diet study: weight gain, food intake, fat pad weights. The format is in vivo. The text has this:
Male CD1/ICR mice were obtained from Harlan. The study was started when mice were 8 weeks of age. Prior to initiation of the study mice fasted for 24 hrs. Mice were fed “Western Diet” that was designed to approximate the “typical” human diet of North America and Europe (Research Diets; New Brunswick, N.J.; Western Diet composition). The Western Diet contained greater then 5 times more fat then normal chow. [table] Mice were weighed daily beginning from the start of the 24 hr fasting period. Food intake was monitored continuously. Mice were bled by retroorbital eyebleed on days 7, 14, 21 and 28 after the initiation of the study. On day of REB mice were dosed 1× with full dose 1 hr prior to bleed. Fat pads were dissected at the end of the study (day 31) weighed and frozen. The following fat pads were dissected: brown, inguinal, axial, mesenteric, renal and epidydimal. Data were averaged and analyzed by ANOVA followed by a post-hoc Tukey's test with a p value of less then 0.05 indicating a statistical difference.

The subject of series [3] is Db/Db mice. Kind of series: In vivo Db/Db mouse obesity study. Conditions: chronic administration to mice.
Series [4] concerns Db/Db mice. In words: In vivo Db/Db mouse glucose study. How it is done: (§1) Db/Db and Db/lean mice were obtained from Harlan at 6 weeks of age. Mice were housed 3 per cage and fed ad libitum normal rodent chow. Mice were kept on a 12 hr Light:dark cycle.
(§2) The study was initiated when mice reached an age of 8 weeks and their baseline blood glucose levels were greater than 200 mg/dl. Compound 102 was formulated in PBS: 2N HCl (99:1) at concentrations of 0.5, 1.5 and 5 mg/ml. Mice were dosed at volumes of 10 ml/kg to produce doses of 5, 15 and 50 mg/kg/dose. Mice were dosed twice per day at an 8 hr interval (8 am and 4 pm) during the light cycle.
For the acute blood glucose measurements, blood glucose levels were measured after the animals received their first dose of Compound 102. Blood glucose levels were measured two hrs after this initial injection.

For another series, the target named is Lyn Kinase enzyme (Homo sapiens, UniProt P07948). In words: In vitro Lyn kinase enzyme activity. Format: biochemical. The following applies: FIG. 12.
Lyn Kinase enzyme, sequence (P07948 whole entry): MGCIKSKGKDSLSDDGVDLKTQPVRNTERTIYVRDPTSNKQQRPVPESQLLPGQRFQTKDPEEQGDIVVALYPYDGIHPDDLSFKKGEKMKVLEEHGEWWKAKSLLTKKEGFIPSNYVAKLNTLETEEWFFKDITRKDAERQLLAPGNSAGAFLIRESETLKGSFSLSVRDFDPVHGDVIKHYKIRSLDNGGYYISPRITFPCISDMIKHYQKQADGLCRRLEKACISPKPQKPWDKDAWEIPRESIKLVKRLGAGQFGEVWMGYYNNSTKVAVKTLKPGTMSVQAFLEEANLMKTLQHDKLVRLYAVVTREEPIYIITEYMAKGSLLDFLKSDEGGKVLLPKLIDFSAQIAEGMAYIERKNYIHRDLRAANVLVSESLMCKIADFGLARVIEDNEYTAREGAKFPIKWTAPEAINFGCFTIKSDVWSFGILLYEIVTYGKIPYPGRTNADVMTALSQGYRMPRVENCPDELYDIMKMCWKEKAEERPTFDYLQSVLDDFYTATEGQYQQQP
The subject of series [5] is Db/Db mice. In words: In vivo Db/Db mouse obesity study. How it is done: as §1, §2
Mice were administered vehicle or drug (i.e., Compound 102) (5, 15, and 50 mg/kg) twice per day (bid) for the 28 days. Mouse weight and food intake were monitored daily. Food intake is reported as food intake (grams) per mouse per 24 hr period.

Where [6] appears, read: single dose of 2 or 10 mg/kg, FIG. 3.

Entries after “also recorded” stand apart in the source; their conditions may differ.

For `Cc1cccc(Oc2cnc(=O)[nH]c2)c1` [Compound 102], the “blood glucose levels after oral glucose challenge” value in the series with Zucker rats is listed as “reduced blood glucose levels at both time points; also recorded: reduction is blood glucose levels”. Besides, the blood leptin levels entry in the series with leptin was “reduced leptin levels to those fed a normal diet”. For the same compound, in series [1], the “blood glucose levels / blood glucose load in mouse model of type II diabetes” value is given as “effective in reducing blood glucose levels”. Moreover, in series [1] (study 1, single administration, 30 mg/kg), the “time after drug administration at which significance was lost” value is 90 min. In addition, the “normal blood glucose levels (pre-glucose loading)” value in series [1] (study 1, single administration, 30 mg/kg, mice) is “significantly decreased”. Further, the “blood glucose levels produced by oral glucose administration” value in series [1] (study 1, single administration, 30 mg/kg, oral glucose 1.5 g/kg) is “significantly attenuated”. In addition, the “effect on blood glucose levels” value in series [1] (study 2, increased dosing (four times at 30 minute intervals)) is recorded as “more dramatic effect”. Also, the food intake entry in series [2] is on record as “not affected”. Further, in series [2] (day 31), the “brown, axial, inguinal, renal and epididymal fat pad increases” value was “significantly reduced”. Besides, the weight gain result in series [2] (highest dose tested (30 mg/kg/day)) was “significantly reduced; also recorded: significant alteration in weight change”. Besides, the “weight-gain response of animals fed a high fat diet” value with Db/Db mice [3] is “significantly inhibited”. Further, the “acute blood glucose response upon study initiation and on weekly testing” value in the series on Db/Db mice [4] (15 mg/kg and 50 mg/kg dose groups) is “acute dose response”. Further, the “blood glucose levels following acute administration” value in the series on Db/Db mice [4] (2 hrs after first dose) was “reduce blood glucose levels; also recorded: reduction in glucose levels”. Also, the “blood glucose levels, dose dependence” value with Db/Db mice [4] (IP twice/day, four weeks) is “dose dependent effect”. Further, on Lyn Kinase enzyme, the “in vitro activity of Lyn Kinase enzyme” value is “increased in vitro activity”. Further, in the series on Db/Db mice [5] (Db/Db mice, IP twice/day, four weeks), the “animal weight gain, dose dependence” value is listed as “dose dependent effect”. In the series with Db/Db mice [5] (Db/Db mice, bid, 28 days), the food intake result was “without affecting food intake” and the weight gain entry was “significantly lowered; also recorded: reduction in weight gain”. In the series with Db/Db mice [5] (chronic administration to mice), the defecation entry is on record as “defecated normally” and the “food intake compared to vehicle-treated animals” value is “normal food intake”. Moreover, the “hyperactivity (as with amphetamine class of weight-loss drugs)” value with Db/Db mice [5] (mouse, in vivo) is “did not display the hyperactivity”.

Regarding `CN(C)C(=N)N=C(N)N` [metformin, reference compound], the “blood glucose levels / blood glucose load in mouse model of type II diabetes” value in series [1] is recorded as “can effectively reduce the blood glucose load”.

As to `O=c1ncc(Oc2cccc(Cl)c2)c[nH]1` [Compound 105], in series [1], the “blood glucose levels / blood glucose load in mouse model of type II diabetes” value is given as “effective in reducing blood glucose levels”. Moreover, in series [1] (setting [6]), the “baseline blood glucose levels” value is reported as “significantly depressed” and the “blood glucose levels at all time points after administration” value is “significantly (P<0.05) reduced”.
